In patent EP0993306B1, “PERFLUOROALKYLATED OLIGOMER COMPOUNDS, PROCESS FOR PREPARING THE SAME AND THEIR USE IN NMR DIAGNOSIS” (SCHERING AKTIENGESELLSCHAFT, priority 1997, dated 1999):

Experiments:
[1] = T1 relaxivity in human plasma (Minispec pc 20); assay type: physicochemical; settings: for R^1 (T^1-Relaxivity): 0.47 T, 20 MHz, 37 °C, Humanplasma, normalised to one metal atom
[2] = Lymph node accumulation in stimulated guinea pigs after s.c. administration (ICP-AES); assay type: in vivo, Meerschweinchen; settings: 10 µmol/kg s.c. hind paw, MW ± SD, n=3
Description: Die erfindungsgemäßen Verbindungen erfüllen alle Voraussetzungen, die von Kontrastmitteln in der indirekten NMR-Lymphographie verlangt werden: gute lokale Verträglichkeit, rascher Abtransport vom Injektionsort, rasche und weitestgehend vollständige Ausscheidung aus dem Gesamtorganismus. Ferner zeigen sie eine hohe Anreicherung über mehrere Lymphknotenstationen und erlauben damit relevante diagnostische Aussagen. So konnte am Meerschweinchenmodell eine hohe Anreicherung über mehrere Lymphknotenstationen (popliteal, inguinal, iliakal) nach s.c. Gabe (2,5-10 µmol/kg Körpergewicht, Injektion in Zwischenzehenräume der Hinterpfote) gezeigt werden. In besonders geeigneten Fällen wurden so in der zweiten (inguinal) und dritten (iliakal) Station noch Gadoliniumkonzentrationen von jeweils ≥ 200 bzw. ≥ 300 µmol/l erhalten. Üblicherweise sind mit den erfindungsgemäßen Verbindungen Lymphknotenkonzentrationen bis zu 1000 µmol/l zu erhalten.
Der Gadolinium-Komplex des Beispiels 19 wurde 30 Min./ 90 Min. nach subkutaner Gabe (10 µmol Gesamtgadolinium/kg KG, Hinterpfote s.c.) an stimulierten Meerschweinchen (komplettes Freund-Adjuvant; jeweils 0,1 ml i.m. in den rechten und linken Ober- und Unterschenkel; 2 Wochen vor Gabe der Prüfsubstanz) hinsichtlich ihrer Lymphknotenanreicherung in drei aufeinanderfolgenden Lymphknotenstationen (popliteal, inguinal, iliakal) untersucht. Hierbei wurden die nachfolgend aufgelisteten Ergebnisse (Ermittlung der Gadolinium-Konzentration mittels ICP-AES) erhalten: […]

[3] = Retention of the contrast metal at the injection site (paw); assay type: in vivo, Meerschweinchen; settings: 10 µmol/kg interstitial, MW ± SD, n=3
Description: Nach s.c. Gabe von 10 µmol Gesamtgadolinium (Beispiel 19)/kg Körpergewicht in die Meerschweinchenpfote wurde die Retention des Metalls am Injektionsort zu verschiedenen Zeitpunkten untersucht.

[4] = Excretion after s.c. administration: metal retention in liver, kidneys, spleen; assay type: in vivo, Meerschweinchen; settings: 10 µmol/kg interstitial, MW ± SD, n=2
Description: Nach subkutaner Gabe von 10 µmol Gesamtgadolinium (Beispiel 19) /kg Körpergewicht in die Hinterpfote des Meerschweines wurde 7 Tage nach Applikation die Retention des Metalls in der Leber, in den Nieren sowie in der Milz untersucht.

[5] = rat, in vivo, iv, 100 umol/kg
Description: Hierfür wurde nach einmaliger intravenöser Applikation (via einer Caudalvene) der Substanzen (Dosis: ≈ 100 µmol Metall pro kg Körpergewicht) die Substanzkonzentration im Blut (basierend auf dem Gd- bzw. Dy-Gehalt) über einen Zeitraum bis zu 120 Minuten p. i. mittels ICP-AES bestimmt. Die pharmakokinetischen Parameter: Verteilungsvolumen (Vss), Gesamtclearance (CLtot) und Eliminationshalbwertszeit (tb) wurden mit einem speziellen Computerprogramm (TOPFIT 2.0; Thomae, Schering, Gödecke) berechnet, wobei ein Zwei-Kompartment-Distributionsmodell zu Grunde gelegt wurde.
Die Gd- und Dy-Gehalte im Blut wurden mittels ICP-AES bestimmt.
Hierfür wurde nach einmaliger intravenöser Applikation (via einer Caudalvene) der Substanzen (Dosis: ≈ 100 µmol Metall pro kg Körpergewicht) die Substanzkonzentration im Blut (basierend auf dem Metallgehalt) über einen Zeitraum bis zu 120 Minuten p. i. mittels ICP-AES bestimmt. Die pharmakokinetischen Parameter: Verteilungsvolumen (Vss), Gesamtclearance (CLtot) und Eliminationshalbwertszeit (tb) wurden mit einem speziellen Computerprogramm (TOPFIT 2.0; Thomae, Schering, Gödecke) berechnet, wobei ein Zwei-Kompartment-Distributionsmodell zu Grunde gelegt wurde.

[6] = 39 °C, 0,47 T; cited from earlier work
[7] = Diffusibility: in vivo comparison with an intravasal and an extracellular contrast agent, ligated renal vessels; settings: i.v. 20 µmol/kg each, ligated renal vessels, relative to Verbindung 2 set as 100 %
Experimental: (§1) Als Versuchstiere dienten drei 250 g schwere, männliche (Schering-SPF-) Ratten. Den Tieren wurden die Nierengefäße abgebunden, um eine renale Eliminierung zu verhindern und bei angenommener vernachlässigbarer faekaler Eliminierung ein Maß für Diffusibilität der erfindungsgemäßen Formulierung aus dem Blut in das umgebende Gewebe zu erhalten. Je Tier wurden 0.5 ml (jeweils 10 mmol/L) der folgenden Kontrastmittel-Lösung intravenös appliziert: Gemisch aus je 1 Teil der Verbindung des Beispiels 1g, im folgenden Verbindung 1 genannt, des intravasalen Kontrastmittels Eu-DTPA-Albumin, im folgenden Verbindung 2 genannt, und des extrazellulären Kontrastmittels Dy-DTPA, im folgenden Verbindung 3 genannt. Über einen Katheter in der Arteria carotis communis wurden Blutproben zu folgenden Zeitpunkten entnommen: 15, 30, 45, 60, 90 sec, 3, 5, 10, 15 min p.i. In den gewonnenen Blutproben wurden jeweils parallel die Konzentrationen an Gadolinium (Gd), Europium (Eu) und Dysprosium (Dy) mittels Atomemissionsspektrometrie (ICP-AES) gemessen. Der im Blutraum verbliebene Anteil des intravasalen Kontrastmittels Verbindung 2 (Eu) wurde als 100 % gesetzt. Der im Blutraum verbliebene Anteil der erfindungsgemäßen Formulierung Verbindung 1 (Gd) und der Verbindung 3 (Dy, extrazelluläre Vergleichssubstanz) konnte durch die unterschiedliche Markierung im gleichen Tier verglichen werden und wurde prozentual ins Verhältnis zur Konzentration der Verbindung 2 gesetzt. Damit liefern diese Daten Angaben über den Verbleib der Verbindungen im Intravasalraum.

[8] = as above; parameters: species or system Ratte; settings: i.v. 20 µmol/kg each, relative to Verbindung 2 set as 100 %
Experimental: as §1

1,4,7-Tris(N-3,3,6-tris(carboxylatomethyl)-6-[N-3-aza-2,5-dioxo-pentan-1,5-diyl]-3,6,9-triazaundecan-1,11-disäure, Gd-Komplex, Mononatriumsalz}-10-2H,2H,4H,4H,5H,5H-3-oxa-perfluor-tridecanoyl)-1,4,7,10-tetraazacyclododecan [Beispiel 8 b)]
R^1 (T^1-Relaxivity) [1]: 20,6 L/mmol * sec

1,4,7-Tris{1,4,7-tris-(N-carboxylatomethyl)-10-[N-(4,7-diaza-3,6,9-trioxo)-nonan-2,9-diyl]-1,4,7,10-tetraazacyclododecan, Gd-Komplex-10-(N-22F,22F,22F,21F,21F, 20F,20F,19F, 19F, 18F, 18F, 17F,17F, 16F, 16F, 15F, 15F-heptadecafluor-12-oxadocosanoyl)-1,4,7,10-tetraazacyclododecan [Beispiel 14 e)]
R^1 (T^1-Relaxivity) [1]: 19,3 L/mmol * sec

1,4,7-Tris{N-3,9-bis(carboxylatomethyl)-6-[N-3-aza-2,5-dioxo-pentan-1,5-diyl]-3,6,9-triazaundecan-1-carboxylato-11-säure, Gd-Komplex, Natriumsalz}-10-[Nacetyl-(2-amino-N-ethyl-N-perfluoroctylsulfonyl)]-1,4,7,10-tetraazacyclododecan [Beispiel 18 d)]
R^1 (T^1-Relaxivity) [1]: 23,0 L/mmol * sec

1,4,7-Tris{N-[3,9-bis{N-carboxylatomethyl)]-6-[N-{3-aza-2,5-dioxo-pentan)-1,5-diyl]-3,6,9-triazaundecan-1-carboxylato-11-säure, Gd-Komplex, Mononatriumsalz}-10-N-{undecanoyl-〈11-amino-N-[acetyl-(2-amino-N-ethyl-N-perfluoroctylsulfonyl)]) }-1,4,7,10-tetraazacyclododecan [Beispiel 25 f)]
R^1 (T^1-Relaxivity) [1]: 15,1 L/mmol * sec

1,4,7-Tris{N-hexanoyl-2,6-bis〈*amino-N-acetyl-2-[3,9-bis(N-carboxylato-methyl)-6-yl-3,6,9-triazaundecan-1-carboxylato-11-säure, Gd-Komplex, Mononatriumsalz]〉}-10-[N-acetyl-(2-amino-N-ethyl-N-perfluoroctylsulfonyl)]-1,4,7,10-tetraazacyclododecan [Beispiel 26 d)]
R^1 (T^1-Relaxivity) [1]: 13,0 L/mmol * sec

1,4,7-Tris{N-hexanoyl-2,6-bis〈amino-N-acetyl-2-[aminopropanoyl-(2-yl)]-[1,4,7-tris(Ncarboxylatomethyl)-1,4,7,10-tetraazacyclododecan-10-yl, Gd-Komplex]〉}-10-[N-acetyl-(2-amino-N-ethyl-N-perfluoroctylsulfonyl)]-1,4,7,10-tetraazacyclododecan [Beispiel 27]
R^1 (T^1-Relaxivity) [1]: 16,1 L/mmol * sec

CCN(CC(=O)N1CCN(C(=O)CNC(=O)CNC(=O)C(C)N2CCN(CC(=O)[O-])CCN(CC(=O)[O-])CCN(CC(=O)[O-])CC2)CCN(C(=O)CNC(=O)CNC(=O)C(C)N2CCN(CC(=O)[O-])CCN(CC(=O)[O-])CCN(CC(=O)[O-])CC2)CCN(C(=O)CNC(=O)CNC(=O)C(C)N2CCN(CC(=O)[O-])CCN(CC(=O)[O-])CCN(CC(=O)[O-])CC2)CC1)S(=O)(=O)C(F)(F)C(F)(F)C(F)(F)C(F)(F)C(F)(F)C(F)(F)C(F)(F)C(F)(F)F.[Gd+3].[Gd+3].[Gd+3] (centres unmarked) [Beispiel 19, 1,4,7-Tris{1,4,7-tris(N-carboxylatomethyl)-10-[N-(4,7-diaza-3,6,9-trioxo)-nonan-2,9-diyl]-1,4,7,10-tetraazacyclododecan, Gd-Komplex}-10-[N-acetyl-(2-amino-N-ethyl-N-perfluor-octylsulfonyl)]-1,4,7,10-tetraazacyclododecan]
Gd-Konzentration, Blut ([2]; 30 min p.i.): 24 ± 3 µmol/L | Gd-Konzentration, Lymphknoten iliakal ([2]; 30 min p.i.): 50 ± 18 µmol/L | Gd-Konzentration, Lymphknoten inguinal profund ([2]; 30 min p.i.): 43 ± 41 µmol/L | Gd-Konzentration, Lymphknoten popliteal ([2]; 30 min p.i.): 345 ± 319 µmol/L | Gd-Konzentration, Urin ([2]; 30 min p.i.): 261 ± 167 µmol/L | Gd-Konzentration, Blut ([2]; 90 min p.i.): 25 ± 4 µmol/L | Gd-Konzentration, Lymphknoten iliakal ([2]; 90 min p.i.): 20 ± 8 µmol/L | Gd-Konzentration, Lymphknoten inguinal profund ([2]; 90 min p.i.): 9 ± 2 µmol/L | Gd-Konzentration, Lymphknoten popliteal ([2]; 90 min p.i.): 75 ± 20 µmol/L | Gd-Konzentration, Urin ([2]; 90 min p.i.): 348 ± 119 µmol/L | Gadolinium-Konzentration an der Injektionsstelle (Pfote) ([3]; 30 min p.i.): 48,4 ± 10,4 % Dosis | Gadolinium-Konzentration an der Injektionsstelle (Pfote) ([3]; 90 min p.i.): 8,0 ± 1,7 % Dosis | Gadolinium-Konzentration an der Injektionsstelle (Pfote) ([3]; 7 d p.i.): 0,7 ± 0,6 % Dosis | R^1 (T^1-Relaxivity) [1]: 21,4 L/mmol * sec | Relaxivity (r1, Plasma) ([1]; plasma): ≈ 19.5 1*mmol^- ^1*s^-1 | Gadolinium-Gehalt in den Organen 7 d p.i., Leber [4]: 0.09 ± 0.09 % Dosis | Gadolinium-Gehalt in den Organen 7 d p.i., Milz [4]: 0.00 ± 0.01 % Dosis | Gadolinium-Gehalt in den Organen 7 d p.i., Nieren [4]: 0.06 ± 0.04 % Dosis | CL tot [5]: 0.94 mL/min/kg | Vss [5]: 0.12 L/kg

C[NH2+]C[C@@H](O)[C@@H](O)[C@H](O)[C@@H](O)CO.C[NH2+]C[C@@H](O)[C@@H](O)[C@H](O)[C@@H](O)CO.O=C([O-])CN(CCN(CC(=O)[O-])CC(=O)[O-])CCN(CC(=O)[O-])CC(=O)[O-].[Gd+3] [Magnevist ®, Di-N-methylglucaminsalz des Gd-DTPA-Komplexes, reference compound]
R^1 (T^1-Relaxivity) [1]: 4,8 L/mmol * sec | T^1-Relaxivity [6]: 3,5 - 4,9 mM^-1 · sec^-1

CNC(=O)CN(CCN(CCN(CC(=O)[O-])CC(=O)NC)CC(=O)[O-])CC(=O)[O-].[Gd+3] [Omniscan®]
T^1-Relaxivity [6]: 3,5 - 4,9 mM^-1 · sec^-1

CC(O)CN1CCN(CC(=O)[O-])CCN(CC(=O)[O-])CCN(CC(=O)[O-])CC1.[Gd+3] (centres unmarked) [Pro Hance®]
T^1-Relaxivity [6]: 3,5 - 4,9 mM^-1 · sec^-1

Dy-DTPA [reference compound]
Prozentsatz der im Blutraum verbliebenen Dosis ([7]; 30 sec p.i.): 48% | Prozentsatz der im Blutraum verbliebenen Dosis ([7]; 3 min p.i.): 25% | Prozentsatz der im Blutraum verbliebenen Dosis ([7]; 10 min p.i.): 21% | Vss [5]: 0.17 L/kg

Gadolinium-III-Komplex des 1,4,7,10-Tetracarboxymethyl-1,4,7,10-tetraazacyclododecans [Dotarem®]
T^1-Relaxivity [6]: 3,5 - 4,9 mM^-1 · sec^-1

Verbindung 2: intravasales Kontrastmittel Eu-DTPA-Albumin
Prozentsatz der im Blutraum verbliebenen Dosis ([8]; 30 sec p.i.): 100% | Prozentsatz der im Blutraum verbliebenen Dosis ([8]; 3 min p.i.): 100% | Prozentsatz der im Blutraum verbliebenen Dosis ([8]; 10 min p.i.): 100%
